# Measurements published in paper PMC11857211, “Bioprospecting Bioactive Peptides in Halobatrachus didactylus Body Mucus: From In Silico Insights to Essential In Vitro Validation” (Marine Drugs, 2025).
# pIC50: −log10 of the molar value. Where two headings read alike, the source gives them in different places. Ends that are not written are not given here.
# Assays:
# ACE = test system: ACE; design: method as in 2 sources, one per row (each row's own in cited_ref): ref 27 = [27]; PMID 29533693; doi:10.1080/10408398.2018.1452182; 27. Yathisha U.G. Bhat I. Karunasagar I. Mamatha B.S. Antihypertensive Activity of Fish Protein Hydrolysates and Its Peptides Crit. Rev. Food Sci. Nutr. 2019 59 2363 2374 10.1080/10408398.2018.1452182 ||| ref 28 = [28]; PMID 31671730; doi:10.3390/md17110613; 28. Abachi S. Bazinet L. Beaulieu L. Antihypertensive and Angiotensin-i-Converting Enzyme (ACE)-Inhibitory Peptides from Fish as Potential Cardioprotective Compounds Mar. Drugs 2019 17 613 10.3390/md1; details: cited from earlier work
# α-glucosidase [1] = molecular target: α-glucosidase; design: method as in PMID 34445765; details: peptides hydrolyzed from food sources; cited from earlier work
# Protocol: The peptides were tested for antidiabetic activity based on the capacity to inhibit 50% of […].
# [2] = ark shell (Scapharca subcrenata) peptides, values converted to the same units; cited from earlier work
# From the text: In the ORAC assay, the values were 0.334 µmol TE/µmol of peptide for P1 and ...
# [3] = design: method as in 2 sources, one per row (each row's own in cited_ref): ref 19 = [19]; doi:10.1016/j.procbio.2018.06.001; 19. Jin J. Ahn C. Je J. Puri Fi Cation and Characterization of Antioxidant Peptides from Enzymatically Hydrolyzed Ark Shell ( Scapharca subcrenata ) Process Biochem. 2018 72 170 176 10.1016/j.procbio. ||| ref 21 = [21]; PMID 26304349; doi:10.1016/j.foodchem.2015.07.015; 21. Zheng L. Zhao M. Xiao C. Zhao Q. Su G. Practical Problems When Using ABTS Assay to Assess the Radical-Scavenging Activity of Peptides: Importance of Controlling Reaction PH and Time Food Chem. 201; details: cited from earlier work; for ABTS antioxidant activity: ark shell (Scapharca subcrenata) peptides, values converted to the same units
# α-glucosidase [4] = molecular target: α-glucosidase (Saccharomyces cerevisiae, UniProt P53341); test: biochemical
# Protocol: The α-glucosidase inhibitory activity was evaluated through the following method, outlined by Vilas-Boas et al. [42]. The assay was performed in a 96-well microplate (Stansted) and incubated at 25 °C for 5 min, and the absorbance was monitored at 405 nm with a microplate reader (Synergy H1, BioTek Instruments, Winooski, VT, USA). A negative control was performed, with 50 μL of a buffer solution that replaced the peptides. […] Each sample and control analysis was triplicated. The inhibition of α-glucosidase was quantified as the concentration required to inhibit 50% of the enzymatic activity (IC50). The IC50 values were determined using non-linear modelling of the data obtained.
# [5] = peptides from fish protein hydrolysates
# Sequence of α-glucosidase (Saccharomyces cerevisiae, UniProt P53341) (P53341 whole entry): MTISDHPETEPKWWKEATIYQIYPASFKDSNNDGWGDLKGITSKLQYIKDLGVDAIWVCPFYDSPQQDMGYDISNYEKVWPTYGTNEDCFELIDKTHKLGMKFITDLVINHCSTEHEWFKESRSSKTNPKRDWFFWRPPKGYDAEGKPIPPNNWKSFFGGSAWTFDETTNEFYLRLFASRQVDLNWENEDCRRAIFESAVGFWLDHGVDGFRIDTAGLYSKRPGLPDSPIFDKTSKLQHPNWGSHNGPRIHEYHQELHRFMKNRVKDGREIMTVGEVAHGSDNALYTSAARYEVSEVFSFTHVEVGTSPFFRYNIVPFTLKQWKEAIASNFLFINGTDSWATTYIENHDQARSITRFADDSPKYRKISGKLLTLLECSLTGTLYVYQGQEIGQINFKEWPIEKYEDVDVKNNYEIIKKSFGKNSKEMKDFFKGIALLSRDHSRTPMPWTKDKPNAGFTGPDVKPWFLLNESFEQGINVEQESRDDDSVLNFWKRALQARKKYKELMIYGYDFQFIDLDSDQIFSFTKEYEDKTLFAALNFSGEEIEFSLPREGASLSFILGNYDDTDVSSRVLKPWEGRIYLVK
compound,measurement,setting,value
HWTTQR [peptide from Syngnathus schlegeli protein hydrolysate],ACE inhibition IC50,ACE; [5],1440 µg/mL
RVPSLM,pIC50,α-glucosidase [1],4.64
MCLDSCLL [P1],ORAC antioxidant activity,[2],0.334 µmol TE/µmol of peptide
same,ABTS antioxidant activity,[3],0.678 µmol Trolox equivalents (TE)/µmol of peptide
N[C@@H](Cc1ccc(O)cc1)C(=O)O [Tyr],ABTS radical scavenging value,[3]; pH 6.0,2.89 µmol TE/µmol
same,ABTS radical scavenging value,[3]; pH 8.0,6.55 µmol TE/µmol
TPSPR,pIC50,α-glucosidase [1],4.40
PAPPPPPP [HdPPP],pIC50,"α-glucosidase [4]; α-glucosidase IC50, 25 °C, 5 min, absorbance 405 nm, mean ± standard deviation, n = 3",2.66
same,pIC50,"α-glucosidase [4]; α-glucosidase IC50, same result in molar units",2.66
IKPLNY,ACE inhibition IC50,ACE; synthesized peptide before/after fragmentation in digestion,32 µg/mL
HPLDSLCL [P2],ORAC antioxidant activity,[2],0.239 µmol TE/µmol of peptide
same,ABTS antioxidant activity,[3],0.005 µmol TE/µmol of peptide
TFPHGP [peptide from Syngnathus schlegeli protein hydrolysate],ACE inhibition IC50,ACE; [5],600 µg/mL
